Experimental data reported in patent US9580390B2, “Indazole compounds as kinase inhibitors and method of treating cancer with same” (University Health Network, priority 2011, dated 2017).
Like-named read-outs stand apart in the source and are kept apart here.

Columns and labels:
human TTK = target: T1, human TTK (Homo sapiens, UniProt P33981); assay: TTK inhibition assay (indirect ELISA); type: biochemical; conditions: read-out: TTK IC50 Range
T1 construct: amino terminal GST fusion of full length human TTK; purchased Invitrogen
T1 sequence (P33981 1-857): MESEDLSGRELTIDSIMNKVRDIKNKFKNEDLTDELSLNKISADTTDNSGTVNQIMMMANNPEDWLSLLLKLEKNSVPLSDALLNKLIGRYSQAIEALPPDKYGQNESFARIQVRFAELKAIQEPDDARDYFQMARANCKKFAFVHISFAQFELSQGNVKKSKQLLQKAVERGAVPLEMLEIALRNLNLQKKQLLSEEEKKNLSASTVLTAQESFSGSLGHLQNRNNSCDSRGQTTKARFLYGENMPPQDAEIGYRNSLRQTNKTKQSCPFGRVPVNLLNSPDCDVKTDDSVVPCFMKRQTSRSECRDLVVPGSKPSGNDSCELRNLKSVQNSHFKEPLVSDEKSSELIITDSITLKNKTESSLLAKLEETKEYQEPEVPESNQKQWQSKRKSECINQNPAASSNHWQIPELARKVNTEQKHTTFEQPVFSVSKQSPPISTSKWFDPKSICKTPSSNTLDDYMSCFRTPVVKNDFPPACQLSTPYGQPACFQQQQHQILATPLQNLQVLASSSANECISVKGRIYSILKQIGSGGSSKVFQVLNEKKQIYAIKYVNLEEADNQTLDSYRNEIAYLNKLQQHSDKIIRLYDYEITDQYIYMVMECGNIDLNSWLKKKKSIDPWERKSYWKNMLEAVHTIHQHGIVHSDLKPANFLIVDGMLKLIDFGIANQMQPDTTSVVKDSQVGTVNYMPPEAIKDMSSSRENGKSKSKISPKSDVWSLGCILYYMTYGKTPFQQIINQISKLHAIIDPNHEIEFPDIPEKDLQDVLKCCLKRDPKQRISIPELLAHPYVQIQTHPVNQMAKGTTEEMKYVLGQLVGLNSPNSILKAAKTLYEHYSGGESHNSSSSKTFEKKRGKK

[1] = test system: ovarian cancer cells (PA-1); assay: Cancer cell line growth inhibition (SRB assay); type: cell-based; conditions: read-out: Cancer Cell Line GI50 Range PA-1
[2] = test system: colon cancer cells (HCT116); assay: Cancer cell line growth inhibition (SRB assay); type: cell-based; conditions: Homo sapiens, HCT-116, read-out: Cancer Cell Line GI50 Range HCT116
Breast cancer cells = assay: Cancer cell line growth inhibition (SRB assay); type: cell-based; conditions: Homo sapiens; MDA-MB-468; read-out: Cancer Cell Line GI50 Range MDA-MB-468
[3] = PA-1 ovarian cancer cells, SRB assay
[4] = HCT116 colon cancer cells, SRB assay

Row | SMILES | IC50 (human TTK) [nM] | GI50 [1, 3] [nM] | GI50 [2, 4] [nM] | GI50 ([1]; Homo sapiens, PA-1) [nM] | GI50 [2] [nM] | GI50 (Breast cancer cells) [nM]
1 | CN1CCC(Oc2ccc(-c3n[nH]c4ccc(C(=O)NCC5(c6ccccc6)CC5(C)C)cc34)cc2)CC1 (centres unmarked) [Example A431, N-((2,2-dimethyl-1-phenylcyclopropyl)methyl)-3-(4-((1-methylpiperidin-4-yl)oxy)phenyl)-1H-indazole-5-carboxamide] | < 100 | 100 to 500 | 100 to 500 |  |  | 
2 | O=C(NCC1(N2CCOCC2)CCCCC1)c1ccc2[nH]nc(-c3ccc(OC4CCN(CCO)CC4)cc3)c2c1 [Example A432, 3-(4-((1-(2-hydroxyethyl)piperidin-4-yl)oxy)phenyl)-N-((1-morpholinocyclohexyl)methyl)-1H-indazole-5-carboxamide] | < 100 |  |  | < 100 | < 100 | 
3 | O=C(NCC1(c2cccs2)CCOCC1)c1ccc2[nH]nc(-c3ccc(OC4CCN(C5COC5)CC4)cc3)c2c1 [Example A433, 3-(4-((1-(oxetan-3-yl)piperidin-4-yl)oxy)phenyl)-N-((4-(thiophen-2-yl)tetrahydro-2H-pyran-4-yl)methyl)-1H-indazole-5-carboxamide] | < 100 |  |  | 100 to 500 | 100 to 500 | 
4 | O=C(NCC1(OC2CCCC2)CCCCC1)c1ccc2[nH]nc(-c3ccc(N4CCOCC4)cc3)c2c1 [Example A435, N-((1-(cyclopentyloxy)cyclohexyl)methyl)-3-(4-morpholinophenyl)-1H-indazole-5-carboxamide] | < 100 |  |  | > 500 | > 500 | 
5 | O=C(NCC1(c2cccs2)CCOCC1)c1ccc2[nH]nc(-c3ccc(N4CCOCC4)cc3)c2c1 [Example A436, 3-(4-morpholinophenyl)-N-((4-(thiophen-2-yl)tetrahydro-2H-pyran-4-yl)methyl)-1H-indazole-5-carboxamide] | < 100 |  |  | 100 to 500 | 100 to 500 | 
6 | CCC(CC)(CNC(=O)c1ccc2[nH]nc(-c3ccc(N4CCOCC4)cc3)c2c1)c1ccccc1 [Example A437, N-(2-ethyl-2-phenylbutyl)-3-(4-morpholinophenyl)-1H-indazole-5-carboxamide] | < 100 |  |  | 100 to 500 | 100 to 500 | 
7 | C[C@@H]1CN(c2ccc(-c3n[nH]c4ccc(C(=O)NCC5(N6CCOCC6)CCCCC5)cc34)cc2)C[C@H](C)O1 [Example A454, 3-(4-((2S,6R)-2,6-dimethylmorpholino)phenyl)-N-((1-morpholinocyclohexyl)methyl)-1H-indazole-5-carboxamide] | < 100 | 100 to 500 | 100 to 500 |  |  | 
8 | CN1CCC(Oc2ccc(-c3n[nH]c4ccc(C(=O)NCC5(N6CCOCC6)CCC(F)(F)CC5)cc34)cc2)CC1 [Example A458, N-((4,4-difluoro-1-morpholinocyclohexyl)methyl)-3-(4-((1-methylpiperidin-4-yl)oxy)phenyl)-1H-indazole-5-carboxamide] | < 100 | 100 to 500 | 100 to 500 |  |  | 
9 | O=C(CC1(c2ccccc2)COC1)Nc1ccc2[nH]nc(-c3ccc(OC4CCN(C5COC5)CC4)cc3)c2c1 [Example A462, N-(3-(4-((1-(oxetan-3-yl)piperidin-4-yl)oxy)phenyl)-1H-indazol-5-yl)-2-(3-phenyloxetan-3-yl)acetamide] | 100 to 500 |  |  | > 500 | > 500 | 
10 | CCC(CC)(CNC(=O)c1ccc2[nH]nc(-c3ccc(OC4CCN(C5COC5)CC4)cc3)c2c1)N1CCOCC1 [Example A466, N-(2-ethyl-2-morpholinobutyl)-3-(4-((1-(oxetan-3-yl)piperidin-4-yl)oxy)phenyl)-1H-indazole-5-carboxamide] | < 100 |  |  | < 100 | 100 to 500 | 
11 | O=C(NCC1(c2ccccc2)CCCCC1)c1ccc2[nH]nc(-c3ccc(N4CCOCC4)cc3)c2c1 [Example A469, 3-(4-morpholinophenyl)-N-((1-phenylcyclohexyl)methyl)-1H-indazole-5-carboxamide] | < 100 | 100 to 500 | 100 to 500 |  |  | 
12 | CN1CCC(Oc2ccc(-c3n[nH]c4ccc(C(=O)NCC5(c6ccccc6)CCCCC5)cc34)cc2)CC1 [Example A470, 3-(4-((1-methylpiperidin-4-yl)oxy)phenyl)-N-((1-phenylcyclohexyl)methyl)-1H-indazole-5-carboxamide] | < 100 | 100 to 500 | 100 to 500 |  |  | 
13 | CN1CCC(Oc2ccc(-c3n[nH]c4ccc(C(=O)NCC5(c6ccccc6)CC5)cc34)cc2)CC1 [Example A471, 3-(4-((1-methylpiperidin-4-yl)oxy)phenyl)-N-((1-phenylcyclopropyl)methyl)-1H-indazole-5-carboxamide] | < 100 | 100 to 500 | 100 to 500 |  |  | 
14 | CN1CCC(Oc2ccc(-c3n[nH]c4ccc(C(=O)NCC5(c6ccsc6)CCCCC5)cc34)cc2)CC1 [Example A472, 3-(4-((1-methylpiperidin-4-yl)oxy)phenyl)-N-((1-(thiophen-3-yl)cyclohexyl)methyl)-1H-indazole-5-carboxamide] | < 100 | 100 to 500 | 100 to 500 |  |  | 
15 | CN1CCC(Oc2ccc(-c3n[nH]c4ccc(C(=O)NCC5(c6ccccc6)CCOCC5)cc34)cc2)CC1 [Example A473, 3-(4-((1-methylpiperidin-4-yl)oxy)phenyl)-N-((4-phenyltetrahydro-2H-pyran-4-yl)methyl)-1H-indazole-5-carboxamide] | < 100 | 100 to 500 | 100 to 500 |  |  | 
16 | CN1CCC(Oc2ccc(-c3n[nH]c4ccc(C(=O)NCC5(c6ccccn6)CCCCC5)cc34)cc2)CC1 [Example A474, 3-(4-((1-methylpiperidin-4-yl)oxy)phenyl)-N-((1-(pyridin-2-yl)cyclohexyl)methyl)-1H-indazole-5-carboxamide] | < 100 | 100 to 500 | 100 to 500 |  |  | 
17 | CN1CCC(Oc2ccc(-c3n[nH]c4ccc(C(=O)NCC5(c6ccccc6F)CCOCC5)cc34)cc2)CC1 [Example A476, N-((4-(2-fluorophenyl)tetrahydro-2H-pyran-4-yl)methyl)-3-(4-((1-methylpiperidin-4-yl)oxy)phenyl)-1H-indazole-5-carboxamide] | < 100 | 100 to 500 | 100 to 500 |  |  | 
18 | CN1CCC(Oc2ccc(-c3n[nH]c4ccc(C(=O)NCC5(c6ccncc6)CCOCC5)cc34)cc2)CC1 [Example A478, 3-(4-((1-methylpiperidin-4-yl)oxy)phenyl)-N-((4-(pyridin-4-yl)tetrahydro-2H-pyran-4-yl)methyl)-1H-indazole-5-carboxamide] | < 100 | > 500 | > 500 |  |  | 
19 | CN1CCC(Oc2ccc(-c3n[nH]c4ccc(C(=O)NCC5(c6ccncc6)CCCCC5)cc34)cc2)CC1 [Example A480, 3-(4-((1-methylpiperidin-4-yl)oxy)phenyl)-N-((1-(pyridin-4-yl)cyclohexyl)methyl)-1H-indazole-5-carboxamide] | < 100 | 100 to 500 | 100 to 500 |  |  | 
20 | CN1CC[C@@H](Oc2ccc(-c3n[nH]c4ccc(C(=O)NCC5(N6CCOCC6)CCCCC5)cc34)cc2)C1 [Example A481, (R)-3-(4-((1-methylpyrrolidin-3-yl)oxy)phenyl)-N-((1-morpholinocyclohexyl)methyl)-1H-indazole-5-carboxamide] | < 100 | 100 to 500 | 100 to 500 |  |  | 
21 | O=C(NCC1(N2CCOCC2)CCCCC1)c1ccc2[nH]nc(-c3ccc(N4CC5CCC(C4)O5)cc3)c2c1 [Example A483, 3-(4-(8-oxa-3-azabicydo[3.2.1]octan-3-yl)phenyl)-N-((1-morpholinocyclohexyl)methyl)-1H-indazole-5-carboxamide] | < 100 |  |  | 100 to 500 | 100 to 500 | 
22 | O=C(NCC1(CN2CCOCC2)CC1)c1ccc2[nH]nc(-c3ccc(N4CCOCC4)cc3)c2c1 [Example A494, N-((1-(morpholinomethyl)cyclopropyl)methyl)-3-(4-morpholinophenyl)-1H-indazole-5-carboxamide] | < 100 | > 500 | > 500 |  |  | 
23 | O=C(NCC1(N2CCOCC2)CCCCC1)c1ccc2[nH]nc(-c3ccc(OC4CCN(C5COC5)CC4)cc3)c2c1 [Example A506, N-((1-morpholinocyclohexyl)methyl)-3-(4-((1-(oxelan-3-yl)piperidin-4-yl)oxy)phenyl)-1H-indazole-5-carboxamide] | < 100 |  |  | < 100 | < 100 | 
24 | O=C(N[C@H](c1ccccn1)C1CCCC1)c1ccc2[nH]nc(-c3ccc(N4C5CCC4CC(O)C5)cc3)c2c1 (some centres unmarked) [Example A513] | < 100 |  |  |  |  | < 100
